According to patent US9315531B2, “Titanocene-gold derivatives comprising thiolato ligands” (Research Foundation of the City University of New York, priority 2014, dated 2016):

Assays:
[1] = system: Caki-1; experiment: Cell viability assay (XTT), Caki-1; format: cell-based, human; conditions: 72 h incubation
Source text: (§1) Cell Culture: Human renal cell carcinoma lines A498, Caki-1 and UO31, as well as the human prostate carcinoma cell lines DU145 and PC3 were newly obtained for these studies from the American Type Culture Collection (ATCC) (Manassas, Va., USA) and cultured in Roswell Park Memorial Institute (RPMI-1640) (Mediatech Inc., Manassas, Va.) media containing 10% fetal bovine serum (FBS, Life Technologies, Grand Island, N.Y.), 1% Minimum Essential Media (MEM) nonessential amino acids (NEAA, Mediatech) and 1% penicillin-streptomycin (PenStrep, Mediatech). HEK-293T cells were newly purchased from ATCC (Manassas, Va., USA) and maintained in Dulbecco's modified Eagle's medium (DMEM) (Mediatech) supplemented with 10% FBS, 1% NEAA and 1% PenStrep. Normal human renal epithelial cells (RPTC) were purchased from Lifeline Cell Technology (Lifeline Cell Technology, Frederick, Md., USA) and maintained in Lifeline's Renal Life Medium from Lifeline Cell Technology supplemented with 2.4 mM L-glutamine, 5 μg/mL rh insulin, 1.0 nM epinephrine, 10 nM triiodothyronine, 0.1 μg/mL hydrocortisone hemisuccinate, 10 ng/mL rhEGF, 0.50% FBS, 5 μg/mL transferrin PS. All cells were cultured at 37° C. and 5% CO2 in a humidified incubator.
The optical absorbance of each well in a 96-well plate was quantified using BioTek ELx808 absorbance microplate reader (BioTek Winooski, Vt.) set at 450 nm wavelength. The percentage of surviving cells was calculated from the ratio of absorbance of treated to untreated cells.

[2] = system: HEK-293T; experiment: Cell viability assay (XTT), HEK-293T; format: cell-based; conditions: 72 h incubation; non-tumorigenic human embryonic kidney cell line
Experimental: HEK-293T cells were newly purchased from ATCC (Manassas, Va., USA) and maintained in Dulbecco's modified Eagle's medium (DMEM) (Mediatech) supplemented with 10% FBS, 1% NEAA and 1% PenStrep. […] All cells were cultured at 37° C. and 5% CO2 in a humidified incubator.

[3] = system: RPTC; experiment: Cell viability assay (XTT), RPTC; format: cell-based; conditions: 72 h incubation; human renal proximal tubular cells
Source text: as §1
Cell Viability Assay: Cells were seeded at a concentration of 5000 cells/90 μl per well of either RPMI or DMEM without phenol red and without antibiotics, supplemented with 10% FBS and 2 mM L-glutamine into tissue culture grade 96-well flat bottom microplates (BioLite Microwell Plate, Fisher Scientific, Waltham, Mass., USA) and grown for 24 h at 37° C. in a humidified incubator. Afterwards, the intermediate dilutions of the compounds were added to the wells (10 μL) to obtain a final concentration ranging from 0.1 to 200 μM, and the cells were incubated for 24 h or 72 h. […] The optical absorbance of each well in a 96-well plate was quantified using BioTek ELx808 absorbance microplate reader (BioTek Winooski, Vt.) set at 450 nm wavelength. The percentage of surviving cells was calculated from the ratio of absorbance of treated to untreated cells.

[4] = Stability in solution (DMSO-d6, CDCl3, DMSO/PBS); format: physicochemical
Source text: Both compound 2 and compound 3 were less acidic than titanocene dichloride and were soluble in DMSO/water, DMSO/PBS and DMSO/media (1:99) mixtures at micromolar concentrations. These compounds were unusually stable methyl-containing titanocene moieties that were stable as solids at room temperature, while exposed to air in CDCl3 solution for at least five days.

[5] = system: Caki-1 cells; format: cell-based, human; conditions: Caki-1, 5 μM
Experimental: Anti-invasive properties were evaluated by using a wound-healing scratch assay.
Cell migration: For wound healing assays, Caki-1 cells were seeded in 6 cm dishes at a density of 0.8×10^6 in complete media, then grown to confluence for twenty-four hours at 37° C. (5% CO2), then cross-shape wounds/scratches were performed in the monolayer using a sterile 10 μl pipette tip. […] To quantify cell migration, the area of the initial wound (T0) is compared with the area of the healing wound at three time points after the scratch is introduced. Percent Migration=[area of original wound−area of wound during healing]/Area of original wound]×100.

[6] = system: plasmid pBR322 DNA; experiment: Electrophoresis mobility shift assay; format: binding; conditions: metal/DNAbp ratios 0.25-2.0, 37° C., 20 h
Experimental: Agarose gel electrophoresis assays were performed whereby decreased electrophoretic mobility of both forms were taken as evidence of metal-DNA binding.
Mobility Shift Assay: 10 μL aliquots of pBR322 plasmid DNA (20 μg/mL) in buffer (5 mM Tris/HCl, 50 mM NaClO4, pH=7.39) were incubated with different concentrations of the compounds (2, 3, 4, 5), and titanocene dichloride) (in the range 0.25 and 4.0 metal complex:DNA bp) at 37° C. for 20 h in the dark. Samples of free DNA and cisplatin-DNA were prepared as controls. After the incubation period, the samples were loaded onto the 1% agarose gel. The samples were separated by electrophoresis for 1.5 h at 80 V in Tris-acetate/EDTA buffer (TAE). Afterwards, the gel was stained for 30 min with a solution of GelRed nucleic acid stain.

[7] = system: MAPKAPK3; experiment: Protein kinase expression in Caki-1 whole cell lysates (Western blot), MAPKAPK3; format: cell-based, human; conditions: Caki-1, by 12 hours post-treatment
Experimental: The Caki-1 cells were then lysed and a Western blot analysis was performed with anti-MAPKAPK-3 antibody. Blots were probed with anti-β-Actin antibody as a control for protein loading.
Cell lysis and immunoblotting: Caki-1 cells were seeded into 10-cm dishes at a density of 2.2×10^6 and incubated for 24 hours. […] After microcentrifuging for 5 minutes at 4° C., pellets were treated with ice-cold lysis buffer with cell extraction buffer (BioSource, Camarillo, Calif.) containing 0.1% protease inhibitors and 1% phosphatase inhibitors cocktail (Fisher Scientific, Pittsburgh, Pa.) for 10 minutes, then sonicated for 10 seconds three times, and placed on ice. The lysed cells were centrifuged at 10,000×g at 4° C. for 10 minutes to remove the pellets representing the insoluble cell fraction.
The protein concentration was determined with BCA protein dye reagent (Pierce, Fisher Scientific Pittsburgh, Pa.). […]

[8] = Method: The lethal dose (LD) and maximum tolerated doses (MTD) of compound 2 were evaluated in C57/BL6 mice (see experimental for details). […] Twenty-four hours after the last dose all mice used in the MTD study were euthanized and blood plasma, liver, spleen and kidneys were collected and used for histological analysis.
Lethal and maximum tolerated doses (LD and MTD): Determination of lethal and maximum tolerated doses (LD and MTD) in mice: The preliminary toxicity testing of compound 2 was performed in C57BL/6 female mice six to eight weeks of age, maintained in accordance with institutional guidelines at the University of Hawaii Cancer Center (UHCC) governing the care of laboratory animals (IACUC number: A3423-01). To determine the lethal dose, mice were treated for five consecutive days at dosages ranging from 1.5 mg/kg/day to 6 mg/kg/day. One mouse per dose was used. Mice were weighed every forty-eight hours, and sacrificed twenty-four hours after the last dose. […] In order to determine the maximum tolerated dose (MTD) the animals were monitored by trained individuals for pain and distress as appropriate for the animal, under conditions and by procedures established by the UHCC vivarium veterinarian staff and research personnel (BTE). The maximum tolerated dose (MTD) was determined by observing the progression of the mice treated at doses below the lethal dose. Body weights, changes in behavior and signs of distress were recorded. The dose at which neither debilitating effects nor sign of distress were observed was set as the MTD. More specifically the signs for distress monitored were: 1. Decreased food and water consumption; 2. […] Abnormal posture/positioning (e.g., head-pressing, hunched back); 4. Unkempt appearance (erected, matted, or dull haircoat); 5. Self-mutilation, gnawing at limbs; 6. Excessive self-imposed isolation/hiding. […] One group of mice was treated with the solvent (negative control).

[9] = system: thioredoxin reductase
Experimental: After 5, 12 or 24 hours of treatment incubation cells were washed three times in PBS, and lysed by douncing using scrapers and sheer force though syringe with a 34 gauge needle in assay buffer (Abeam Thioredoxin Reductase Assay kit, ab83463) added to 1 mM protease inhibitor cocktail (Abeam, ab65621). The lysates were centrifuged at 10,000×g for 15 minutes at 4° C. to isolate insoluble material. The total protein concentrations of soluble lysates were measured using the BCA Protein Assay (Life Technologies). The soluble lysates were incubated for 20 minutes in assay buffer with a proprietary thioredoxin reductase specific inhibitor before adding a specific substrate, DTNB (5, 5′-dithiobis(2-nitrobenzoic) acid), and measuring activity at 1 minute intervals for 30 minutes using the BioTek fluorescence microplate reader (BioTek U.S., Winooski, Vt.) set at =412 nm. Lysates were tested in duplicate. TrxR activity was calculated based on the linear amount of TNB produced per minute per mg of total protein and corrected for background activity from enzymes other than TrxR in the lysates.

Substance: [(η-C5H5)2TiMe(μ-mba)Au(PPh3)] [Compound 2]
- IC50 [1]: 120 ± 3 nM
- IC50 [2]: 490 ± 0.8 nM
- IC50 [3]: 2670 ± 120 nM
- half-life in DMSO-d6 ([4]; DMSO-d6): eight
- half-life fold larger than corresponding compound 6 / compound 7 ([4]; DMSO-d6, same solvent): sixteen
- UV-vis spectra over time ([4]; micromolar concentration in 1:99 DMSO/PBS, 23 h, physiological pH): did not change over time
- inhibition of migration [5]: complete inhibition of migration
- effect on electrophoretic mobility of plasmid DNA forms [6]: did not affect the mobility
- expression of MAPKAPK3 [7]: dramatic decreases in expression
- necropsy findings at MTD ([8]; 10 mg/kg/day compound 6, 5 mg/kg/day compound 2): normal liver and slightly enlarged spleens
- maximum tolerated dose (MTD) ([8]; C57/BL6 mice, no visible signs of distress over seven days): 5 mg/kg/day
- lethal dose (LD) ([8]; C57/BL6 mice, once daily subcutaneous injection): 6 mg/kg/day
- inhibition of thioredoxin reductase activity ([9]; Caki-1 cells, 5 μM, five hour incubation): 31.6%
- IC50 ([9]; read-out: IC50 thioredoxin reductase in Caki-1 cells, after twelve hours): 880 nM
